Patent publication US20170292959A1, “PLASMIDS COMPRISING INTERNAL RIBOSOMAL ENTRY SITES AND USES THEREOF” (Dana-Farber Cancer Institute, Inc., priority 2014, published 2017)
Where a SMILES comes first, the peptide text is derived from it. The star is where a group is joined. Cbz = O=C(OCc1ccccc1)*

Tests used:
IKZF5 = target: T1, IKZF5 (Homo sapiens, UniProt Q9H5V7); assay: Exogenous IKZF protein level in 293FT cells (Fluc/Rluc ratio, HA immunoblot); format: cell-based; conditions: lenalidomide 2 μM, 12 hours
T1 construct: expressed in transfected cells; host or cells: 293FT
Description: (§1) To verify the change of Fluc/Rluc of ORFs obtained from the 384-well high-throughput screen, each clone was further tested in a 96 well format. The day before transfection, 293FT cells were seeded into solid opaque 96-well plates (BD biosciences) with 20,000 cells in 100 μl of DMEM culture media per well. On the day of transfection 96-well polypropylene plates (Greiner) were used to prepare the transfection mixture. First, a plasmid mixture containing 240 ng of ORF luciferase fusion clone and 480 ng of pcDNA3 was diluted into 120 μl of Opti-MEM reduced serum. Next 14.4 μL of Lipofectamine 2000 was diluted into 120 μl of Opti-MEM reduced serum. 5 minutes later, the plasmid solution was mixed with the diluted Lipofectamine 2000 using a multi-channel pipette. After 30 minutes, 28 μl of DNA/lipofectamine mixture was added to each well of the 96 well plates seeded with 293FT cells (8 wells for each ORF). […] The ratio of FLuc/Rluc was calculated for each well. […]
(§2) Whole cell extracts were resolved by SDS-polyacrylamide gel electrophoresis, transferred onto a nitrocellulose membrane, and probed with the indicated primary antibodies. Bound antibodies were detected with horseradish peroxidase-conjugated secondary antibodies (Pierce) and enhanced chemiluminescence (ECL) western blotting detection regents (Pierce) or Immobilon western chemiluminescent horseradish peroxidase substrate (Millipore).

IKZF4 = target: T2, IKZF4 (Homo sapiens, UniProt Q9H2S9); assay: as above; format: cell-based; conditions: lenalidomide 2 μM, 12 hours
T2 construct: expressed in transfected cells; host or cells: 293FT
Description: as §1, §2

IRF4 [1] = conditions: at least indirectly; cited from earlier work
[2] = target: IKZF2 with the reciprocal change (H141Q) (Homo sapiens, UniProt Q9UKS7, H141Q); conditions: reciprocal change in IKZF2
Source text: (§3) Human IKZF4 cDNA clone was PCR amplified from ETS clone HsCD00295530 (PlasmID, DF/HCC DNA Resource Core), and then cloned into pDONR223 via BP gateway recombination. Human CRBN, human IKZF1 splicing variant 2 (IKZF1-V2), human IKZF2 splicing variant 2 (IKZF2-V2), human IKZF5 and human IRF4 in pDONR223 entry vectors were obtained from the human ORFeome Collection (DF/HCC DNA Resource Core). IKZF1 splicing variant 1 (IKZF1-V1) cDNA and human IKZF2 splicing variant 1 (IKZF2-V1) cDNA were generated by overlapping PCR and cloned into pDONR223 via BP gateway recombination. IKZF4, IKZF1-V1 and IKZF2-V1 were cloned into pIRIGF via LR gateway recombination. IKZF1/2 chimeras (IKZF12 H1, IKZF12 H2, IKZF12 H3, IKZF12 H4, IKZF21 H5, IKZF21 H6, IKZF21 H7, IKZF2 H8, IKZF121 and IKZF212), IKZF1-V2-Q146H, IKZF1-V2-H176P/L177F, IKZF2-V1-H141Q, IKZF2-V1-P171H/F172L, IKZF1-V1-Q146H, IKZF3-Q147H mutants were generated via overlapping PCR and cloned into pIRIGF via LR gateway recombination. IKZF1-V2, IKZF2-V2, IKZF3, IKZF4, IKZF5 and IRF4 were cloned into plenti-UBC-gate-3xHA-pGK-PUR via LR gateway recombination.

IKZF1 Q146H = IKZF1 Q146H (Homo sapiens, UniProt Q13422, Q146H); conditions: IKZF1 residue Q146 changed to histidine
Source text: as §3

IRF4 [3] = target: T3, IRF4 (Homo sapiens, UniProt Q15306); assay: Exogenous protein level in 293FT cells (Fluc/Rluc ratio, HA immunoblot); format: cell-based; conditions: lenalidomide 2 μM, 12 hours
T3 construct: expressed in transfected cells; host or cells: 293FT
Description: as §1, §2

IRF4 mRNA = assay: Real-time qPCR; format: cell-based, human; conditions: MM1S cells treated with lenalidomide
Description: Total RNA was extracted using Qiagen RNeasy Mini Kit with on-column DNase digestion. Total RNA was reverse transcribed into first-strand cDNA using AffinityScript QPCR cDNA Synthesis Kit (Agilent) with random primers. Real-time PCR was performed in duplicate using RT2 SYBR Green/ROX qPCR Master Mix (Qiagen) and the Mx3000P QPCR system (Stratagene). Values were averaged to calculate the expression level and normalized against the level of RPS18. PCR primers are as follows: […]

IRF4 [4] = assay: Immunoblot of endogenous protein in myeloma cells; format: cell-based, human; conditions: LEN 2 μM
Source text: as §2

C11orf65 = target: T4, C11orf65 (Homo sapiens, UniProt Q8NCR3); assay: Exogenous protein level in 293FT cells (Fluc/Rluc ratio, HA tag); format: cell-based; conditions: lenalidomide
T4 construct: expressed in transfected cells; host or cells: 293FT
T4 sequence (Q8NCR3 1-313): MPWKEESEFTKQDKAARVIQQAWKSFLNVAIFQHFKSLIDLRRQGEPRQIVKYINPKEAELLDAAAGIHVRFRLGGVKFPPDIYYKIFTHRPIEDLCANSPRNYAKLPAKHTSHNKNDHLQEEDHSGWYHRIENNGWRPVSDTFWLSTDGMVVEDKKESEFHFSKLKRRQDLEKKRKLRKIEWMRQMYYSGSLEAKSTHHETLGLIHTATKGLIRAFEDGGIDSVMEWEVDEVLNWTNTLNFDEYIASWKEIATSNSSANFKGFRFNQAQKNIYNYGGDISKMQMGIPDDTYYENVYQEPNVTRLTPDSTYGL

myeloma = conditions: alone and in combination with lenalidomide; cited from earlier work
[5] = target: cereblon autoubiquitination activity (Homo sapiens, UniProt Q96SW2); conditions: cited from earlier work
[6] = in vivo; cited from earlier work
cereblon = cereblon (Homo sapiens, UniProt Q96SW2); conditions: cited from earlier work
zebrafish = conditions: in vivo; cited from earlier work
HIF1α = assay: Pilot ORF-luciferase stabilization experiment in 293FT cells (Fluc/Rluc); format: cell-based, human; conditions: DMOG 1 μM, 24 hours
Description: (§4) FIGS. 6A-6B depict the pharmacological stabilization of firefly luciferase fusion protein. 293FT cells were transiently transfected with plasmids encoding unfused Fluc (pIRIF) or the indicated ORF-firefly luciferase (Fluc) fusions and then treated for 24 hours with DMOG (1 μM), MG132 (10 μM), or vehicle (DMSO). HIF1α-dPA is a HIF1α variant lacking both prolyl hydroxylation sites (33). Shown for each plasmid are Fluc/Rluc values (FIG. 6A) and Fold change in Fluc/Rluc compared to DMSO treatment (FIG. 6B). Data are mean±SD, n=4.
(§5) In pilot experiments 293FT embryonic kidney cells grown in multiwell plates were transfected with the ORF-luciferase library (one ORF per well) and treated with the proteasome inhibitor MG132, the hydroxylase inhibitor dimethyloxalylglycine (DMOG), or vehicle. Fluc/Rluc values measured 36 to 48 hours later were stable over a wide range of input plasmid concentrations (FIG. 5).

endogenous IKZF3 = assay: Immunoblot of endogenous protein in myeloma cells; format: cell-based, human; conditions: MM1S and L363 cells; pretreated with MG132 or MLN4924
Source text: as §2
(§6) For cycloheximide assays, cells were pretreated with DMSO or LEN (2 μM) for 1 hour, and then 100 μg/ml cycloheximide (Sigma) was added into the DMEM growth medium.

endogenous IKZF1 = assay: Immunoblot of endogenous protein in leukemia and myeloma cells; format: cell-based, human; conditions: U937, MM1S and L363 cells; pretreated with MG132 or MLN4924
Source text: as §2, §6

IKZF1 = assay: Exogenous IKZF protein level in 293FT cells (Fluc/Rluc ratio, HA immunoblot); format: cell-based, human; conditions: 12 hours; for effect on down-regulation of exogenous IKZF1 by lenalidomide: with lenalidomide 2 μM, MLN4924 1 μM or MG132 10 μM
Description: To verify the change of Fluc/Rluc of ORFs obtained from the 384-well high-throughput screen, each clone was further tested in a 96 well format. […] On the day of transfection 96-well polypropylene plates (Greiner) were used to prepare the transfection mixture. First, a plasmid mixture containing 240 ng of ORF luciferase fusion clone and 480 ng of pcDNA3 was diluted into 120 μl of Opti-MEM reduced serum. Next 14.4 μL of Lipofectamine 2000 was diluted into 120 μl of Opti-MEM reduced serum. 5 minutes later, the plasmid solution was mixed with the diluted Lipofectamine 2000 using a multi-channel pipette. […] 24 hours after transfection, cells were treated with LEN (2 μM) or DMSO in quadruplicate. […] The ratio of FLuc/Rluc was calculated for each well. To determine the change of Fluc/Rluc for each ORF, the averaged Fluc/Rluc of LEN treated wells was divided by that of DMSO treated wells. A 2-tailed Student's t test was performed to determine the statistical significance. P value <0.05 was considered significant.
as §2

proteasomal substrates = assay: Pilot ORF-luciferase stabilization experiment in 293FT cells (Fluc/Rluc); format: cell-based, human; conditions: MG132 10 μM, 24 hours
Description: as §4, §5

IKZF3 = target: T5, IKZF3 (Homo sapiens, UniProt Q9UKT9); assay: Exogenous IKZF protein level in 293FT cells (Fluc/Rluc ratio, HA immunoblot); format: cell-based; conditions: pomalidomide 0.2 μM, 12 hours
T5 construct: expressed in transfected cells; host or cells: 293FT
Description: To verify the change of Fluc/Rluc of ORFs obtained from the 384-well high-throughput screen, each clone was further tested in a 96 well format. […] On the day of transfection 96-well polypropylene plates (Greiner) were used to prepare the transfection mixture. First, a plasmid mixture containing 240 ng of ORF luciferase fusion clone and 480 ng of pcDNA3 was diluted into 120 μl of Opti-MEM reduced serum. Next 14.4 μL of Lipofectamine 2000 was diluted into 120 μl of Opti-MEM reduced serum. 5 minutes later, the plasmid solution was mixed with the diluted Lipofectamine 2000 using a multi-channel pipette. […] The ratio of FLuc/Rluc was calculated for each well. To determine the change of Fluc/Rluc for each ORF, the averaged Fluc/Rluc of LEN treated wells was divided by that of DMSO treated wells. A 2-tailed Student's t test was performed to determine the statistical significance. P value <0.05 was considered significant.
as §2

Compound: Nc1cccc2c1CN(C1CCC(=O)NC1=O)C2=O (stereo not drawn) [lenalidomide]
- level of exogenous IKZF5 (IKZF5): did not affect
- level of exogenous IKZF4 (IKZF4): did not affect
- IRF4 level, previous studies (IRF4 [1]): down-regulates
- sensitivity of IKZF2 mutant to lenalidomide [2]: partially sensitive
- cereblon binding and lenalidomide-induced degradation (IKZF1 Q146H): abrogated
- level of exogenous IRF4 (IRF4 [3]): did not affect
- IRF4 mRNA (IRF4 mRNA): Decreased
- IRF4 level (immunoblot, time course) (IRF4 [4]; KMS34 cells, following loss of IKZF1 and IKZF3): decrease
- IRF4 level (immunoblot, time course) (IRF4 [4]; L363 cells, high basal IRF4): unaffected
- IRF4 level (immunoblot, time course) (IRF4 [4]; MM1S cells, following loss of IKZF1 and IKZF3): decrease
- IRF4 level (IRF4 [4]; three resistant lines (KMS11, RPMI8226, OCImy5)): not down-regulated
- level of C11orf65 fused to HA epitope tag instead of Fluc (C11orf65): unaffected

Compound: CC(C)C[C@H](NC(=O)[C@H](Cc1ccccc1)NC(=O)c1cnccn1)B(O)O [bortezomib]
- antimyeloma activity (myeloma): has antimyeloma activity

Compound: O=C1CCC(N2C(=O)c3ccccc3C2=O)C(=O)N1 (stereo not drawn) [thalidomide]
- effect on cereblon autoubiquitination activity [5]: inhibit
- teratogenicity [6]: teratogenicity, manifest as profound limb defects
- binding to cereblon (cereblon): bind
- effect of treatment of zebrafish (zebrafish): caused fin defects

Compound: COC(=O)CNC(=O)C(=O)OC [DMOG, dimethyloxalylglycine]
- stabilization of HIF1α-Fluc fusion (Fluc/Rluc) (HIF1α): stabilized

Compound: NS(=O)(=O)OC[C@@H]1C[C@@H](n2ccc3c(N[C@H]4CCc5ccccc54)ncnc32)C[C@@H]1O [MLN4924]
- effect of pretreatment on lenalidomide down-regulation of endogenous IKZF3 (endogenous IKZF3): unless the cells were pretreated
- effect of pretreatment on lenalidomide down-regulation of endogenous IKZF1 (endogenous IKZF1): unless the cells were pretreated
- effect on down-regulation of exogenous IKZF1 by lenalidomide (IKZF1): blocked

Compound: CC(C)C[C@@H](C=O)NC(=O)[C@H](CC(C)C)NC(=O)[C@H](CC(C)C)NC(=O)OCc1ccccc1 [MG132] (Cbz-Leu-Leu-Leu-aldehyde)
- effect of pretreatment on lenalidomide down-regulation of endogenous IKZF3 (endogenous IKZF3): unless the cells were pretreated
- effect of pretreatment on lenalidomide down-regulation of endogenous IKZF1 (endogenous IKZF1): unless the cells were pretreated
- stabilization of ORF-Fluc fusions (Fluc/Rluc) (proteasomal substrates): stabilized many proteasomal substrates
- effect on down-regulation of exogenous IKZF1 by lenalidomide (IKZF1): blocked

Compound: Nc1cccc2c1C(=O)N(C1CCC(=O)NC1=O)C2=O (stereo not drawn) [pomalidomide]
- level of IKZF3 fused to Fluc or HA (IKZF3): downregulation
- level of IKZF1 fused to Fluc or HA (IKZF1; pomalidomide 0.2 μM): downregulation
